The text below walks through data of PMC8617063 (Nature Communications, 2021).

Read-outs that look alike come from different tables or passages of the source. Ends that are not written are not given here.

One may read the half-life as the time needed for the level to fall by half in the phase considered.

In one series the test system is tail bleeding. As to conditions: rat, in vivo; for RT50 for bleeding: iv.
Another series concerns saphenous vein bleeding. To be noted: rat, in vivo.
The test system of another series is ear vein bleeding. As to conditions: pig, in vivo.
The conditions of series [1]: in vivo, cited from earlier work.
The target of series [2] is α-thrombin (UniProt P00734).
The target of another series is thrombin (Homo sapiens, UniProt P00734). Put plainly: biochemical.
Series [3] addresses α-thrombin (UniProt P00734). Put plainly: enzyme inhibition (thrombin amidolytic activity on chromogenic substrate S2238); 0.83 nM thrombin, varying concentrations of peptide, 100 µM S2238 (100-400 µM for ultravariegin); 50 mM Tris pH 7.4, 100 mM NaCl, 1 mg/ml BSA, room temperature; tight-binding fit gives apparent Ki', Ki from Ki' for competitive inhibition; for UV011 Ki = IC50 (non-competitive inhibition assumed).

With `CC[C@H](C)[C@H](NC(=O)[C@H](CCC(=O)O)NC(=O)[C@H](CCC(=O)O)NC(=O)[C@H](Cc1ccccc1)NC(=O)[C@H](CC(=O)O)NC(=O)CNC(=O)[C@H](CC(N)=O)NC(=O)CNC(=O)CNC(=O)CNC(=O)CNC(=O)[C@@H]1CCCN1C(=O)[C@H](CCCNC(=N)N)NC(=O)[C@@H]1CCCN1C(=O)[C@H](N)Cc1ccccc1)C(=O)N1CCC[C@H]1C(=O)N[C@@H](CCC(=O)O)C(=O)N[C@@H](CCC(=O)O)C(=O)N[C@@H](Cc1ccc(O)cc1)C(=O)N[C@@H](CC(C)C)C(=O)O` [Bivalirudin, reference compound], in the series on tail bleeding, the “Tail bleeding” value worked out at 20.5 min, the tail bleeding time result is “maximal bleeding” and the RT50 for bleeding is on record as 4.0 mg/kg/h. In addition, the “Sephaneous vein bleeding” value in the series on saphenous vein bleeding is on record as 4.131 min. The bleeding time in the series on ear vein bleeding is on record as 45 min. Further, in series [1], the half-life is on record as 25 min and the plasma concentration result is given as “around 2.7 µM”.

For `CC[C@H](C)[C@H](NC(=O)[C@H](C)NC(=O)[C@H](CCC(=O)O)NC(=O)[C@H](Cc1ccccc1)NC(=O)[C@H](CC(=O)O)NC(=O)[C@H](Cc1ccccc1)NC(=O)[C@@H]1CCCN1C(=O)[C@@H]1CCCN1C(=O)[C@H](C)NC(=O)[C@@H](NC(=O)[C@H](CCCCN)NC(=O)[C@H](Cc1cnc[nH]1)NC(=O)[C@H](CCSC)NC(=O)[C@H](CCCCN)NC(=O)[C@@H]1CCCN1C(=O)[C@H](CCC(=O)O)NC(=O)[C@H](C)NC(=O)[C@@H](NC(=O)[C@H](CC(=O)O)NC(=O)CNC(=O)[C@H](CCC(N)=O)NC(=O)[C@H](CC(=O)O)NC(=O)[C@@H](N)CO)C(C)C)[C@@H](C)O)C(=O)N1CCC[C@H]1C(=O)N[C@@H](CCC(=O)O)C(=O)N[C@@H](CCC(=O)O)C(=O)N[C@@H](Cc1ccc(O)cc1)C(=O)N[C@@H](CC(C)C)C(=O)N[C@@H](CC(=O)O)C(=O)N[C@@H](CC(=O)O)C(=O)N[C@@H](CCC(=O)O)C(=O)N[C@@H](CO)C(=O)O` [Variegin], in the series with tail bleeding, the “Bleeding, Response time” value worked out at 60 min; the “Tail bleeding” value worked out at 8 min; the tail bleeding time was ~ 30 min; the RT50 for bleeding is 5.3 mg/kg. Moreover, in the series on saphenous vein bleeding, the “Sephaneous vein bleeding” value is 2.613 min. The compound also yielded a bleeding time with ear vein bleeding of 7.7 ± 2.6 min. The compound also showed a bleeding time with ear vein bleeding (iv, 1 mg/kg) of 10.3 min. In addition, in series [1], the average plasma concentration is ~ 30 nM and the half-life is 52.3 ± 4.4 min. Besides, the volume of distribution entry in series [1] (pig) is “around 750 ml/kg”.

For Bivalirudin (peptide), the Ki with α-thrombin [2] came to 1.78 nM.

Regarding MYSTAPPGDFEEIPDDAIEE [UV011], the Ki on thrombin (Ki (pM)) was determined as 1660 ± 759 pM.

“SDEAVRAIPKMYSTAPPGDFEEIPDDAIEE [Ultravariegin]”: in the series on tail bleeding, the “Tail bleeding” value is listed as 7.5 min and the RT50 for bleeding is 2.0 mg/kg. In the series on saphenous vein bleeding, the “Sephaneous vein bleeding” value came out at 2.252 min. The compound also came in with a bleeding time in the series on ear vein bleeding of 6.2 ± 1.3 min. On thrombin (Ki (pM)), this compound had a Ki of 4.02 pM. Moreover, on thrombin (Ki, y-intercept of line fitted to Ki′ = Ki (1 + S/Km)), the Ki was 4.2 ± 0.3 pM.

For “SDEAVRAIPKMYSTAPPGDFETIPDDAIEE [DAA34688.1 repeat 1C]”, the Ki at thrombin (Ki (pM)) is 6.5 ± 1.3 pM.

“SDEAVRAIPKMYSTAPPGDFETIPDDAIEER [DAA34688.1 repeat 1B]” yielded a Ki on thrombin (Ki (pM)) of 20.5 ± 4.7 pM.

As for “SDEAVRAIPKMYSTAPPGDFETIPDDAIEEREMKAR [DAA34688.1 repeat 1]”, the Ki at thrombin (Ki (pM)) was determined as 43.2 ± 8 pM.

Take “SGGHQTAVPKISKQGLGGDFEEIPSDEIIE [Avathrin, reference compound]”: at thrombin (Ki (pM)), the Ki was determined as 624 ± 86 pM.

Ultravariegin (peptide): in the series with α-thrombin [3], the Ki amounted to 0.004 nM.
